Measurements as given in US20260103455A1, “ULK3 INHIBITORS AND USES THEREOF” (H. LEE MOFFITT CANCER CENTER AND RESEARCH INSTITUTE, INC., priority 2022, published 2026).
pIC50: −log10 of the molar value. Where “and” joins values, the source holds several entries; their conditions need not be identical. Equal entries are not always repeated.

How the values were obtained:
ULK3 [1] = target: T1, ULK3 (Homo sapiens, UniProt Q6PHR2); experiment: IC50 for ULK3, Reaction Biology kinase assay (32P Hotspot assay); assay type: biochemical
T1 sequence (Q6PHR2 1-472): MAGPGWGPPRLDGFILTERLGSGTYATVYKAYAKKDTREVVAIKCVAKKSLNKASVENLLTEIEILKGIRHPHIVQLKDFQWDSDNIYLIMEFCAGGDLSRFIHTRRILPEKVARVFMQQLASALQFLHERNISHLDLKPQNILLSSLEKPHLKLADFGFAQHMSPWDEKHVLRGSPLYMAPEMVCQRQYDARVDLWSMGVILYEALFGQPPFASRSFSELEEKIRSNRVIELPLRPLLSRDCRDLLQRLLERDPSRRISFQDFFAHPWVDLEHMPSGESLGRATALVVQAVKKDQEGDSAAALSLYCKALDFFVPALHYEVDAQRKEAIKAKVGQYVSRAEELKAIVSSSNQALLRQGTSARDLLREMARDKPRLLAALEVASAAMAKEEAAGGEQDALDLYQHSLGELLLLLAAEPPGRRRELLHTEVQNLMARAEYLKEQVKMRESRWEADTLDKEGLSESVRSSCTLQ

JAK2 [2] = target: T2, JAK2 (Homo sapiens, UniProt O60674); experiment: IC50 for JAK2, Reaction Biology kinase assay (32P Hotspot assay); assay type: biochemical
T2 sequence (O60674 whole entry): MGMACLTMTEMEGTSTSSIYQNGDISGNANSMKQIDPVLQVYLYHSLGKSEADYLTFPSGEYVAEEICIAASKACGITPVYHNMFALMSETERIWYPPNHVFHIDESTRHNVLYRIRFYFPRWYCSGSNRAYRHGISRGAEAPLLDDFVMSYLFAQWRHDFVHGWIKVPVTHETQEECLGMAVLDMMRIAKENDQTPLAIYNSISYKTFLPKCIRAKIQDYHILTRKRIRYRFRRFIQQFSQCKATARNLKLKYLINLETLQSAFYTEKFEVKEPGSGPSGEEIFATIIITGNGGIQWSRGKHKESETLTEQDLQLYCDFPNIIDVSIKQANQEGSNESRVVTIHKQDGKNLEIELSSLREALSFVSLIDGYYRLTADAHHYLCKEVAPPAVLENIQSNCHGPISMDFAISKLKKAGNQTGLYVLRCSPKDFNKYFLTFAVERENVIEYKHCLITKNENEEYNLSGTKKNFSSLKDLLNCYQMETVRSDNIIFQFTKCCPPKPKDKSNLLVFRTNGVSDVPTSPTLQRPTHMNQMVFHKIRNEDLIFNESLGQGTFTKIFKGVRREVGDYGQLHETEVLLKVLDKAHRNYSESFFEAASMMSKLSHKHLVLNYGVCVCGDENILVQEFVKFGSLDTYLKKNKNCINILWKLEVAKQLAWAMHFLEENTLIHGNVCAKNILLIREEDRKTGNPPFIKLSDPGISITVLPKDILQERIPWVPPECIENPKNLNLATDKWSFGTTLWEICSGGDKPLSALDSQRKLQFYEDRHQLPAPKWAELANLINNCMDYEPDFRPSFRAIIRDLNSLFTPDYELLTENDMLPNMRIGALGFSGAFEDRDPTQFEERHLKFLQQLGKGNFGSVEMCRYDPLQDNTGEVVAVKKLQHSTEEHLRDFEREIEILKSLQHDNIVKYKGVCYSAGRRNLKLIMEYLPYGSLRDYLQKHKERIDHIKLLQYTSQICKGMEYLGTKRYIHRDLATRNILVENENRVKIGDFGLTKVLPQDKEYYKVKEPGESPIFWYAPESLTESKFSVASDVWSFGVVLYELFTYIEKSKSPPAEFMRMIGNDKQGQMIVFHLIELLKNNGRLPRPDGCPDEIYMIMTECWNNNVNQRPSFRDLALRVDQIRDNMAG

ULK3 [3] = target: T1, ULK3; experiment: DSF (ULK3) thermal shift; assay type: binding
U266 = experiment: GI50 (MM cell) U266; assay type: cell-based; details: Homo sapiens, U-266
8226 = experiment: GI50 (MM cell) 8226; assay type: cell-based
OPM2 = experiment: GI50 (MM cell) OPM2; assay type: cell-based; details: Homo sapiens, OPM-2
U266 PSR = experiment: GI50 (MM cell) U266 PSR; assay type: cell-based; details: Homo sapiens, U-266
8226 B25 = experiment: GI50 (MM cell) 8226 B25; assay type: cell-based
JAK2 [4] = target: T2, JAK2; experiment: DSF (JAK2) thermal shift; assay type: binding

Row | pIC50 (ULK3 [1]) | pIC50 (JAK2 [2]) | DSF (ULK3) ΔTm (° C.) (ULK3 [3]) | GI50 (U266) [nM] | GI50 (U266 PSR) [nM] | DSF (JAK2) ΔTm (° C.) (JAK2 [4]) [°C] | SMILES | GI50 8226 [nM] | GI50 (OPM2) [nM] | GI50 (8226 B25) [nM]
1 | 7.99 | > 9.29 | 15.0 °C and 11.7 °C and 14.7 °C | 86.2 | 4410 |  | O=C(NCC(F)(F)F)c1ccc(-c2ccnc(Nc3ccc(N4CCOCC4)cc3)n2)cc1 [SR8-169, 4-(2-((4-Morpholinophenyl)amino)pyrimidin-4-yl)-N-(2,2,2-trifluoroethyl)benzamide] | 83.5 | 15.1 | 214
2 |  | 9.13 | 12.5 °C |  |  | 0.7 | C[C@H](NC(=O)c1ccc(-c2ccnc(Nc3ccc(N4CCOCC4)cc3)n2)cc1)C(F)(F)F [BH1-152, (S)-4-(2-((4-Morpholinophenyl)amino)pyrimidin-4-yl)-N-(1,1,1-trifluoropropan-2-yl)benzamide] |  |  | 
3 | 8.06 | 8.88 | 14.3 °C and 14.4 °C | 210 | 1580 |  | CC(NC(=O)c1ccc(-c2ccnc(Nc3ccc(N4CCOCC4)cc3)n2)cc1)C(F)(F)F (racemic) [SR8-170, (RS)-4-(2-((4-Morpholinophenyl)amino)pyrimidin-4-yl)-N-(1,1,1-trifluoropropan-2-yl)benzamide] | 290 | 6700 | 404
4 |  | > 9.29 |  | 917 | 2580 |  | CN1CCN(Cc2ccc(Nc3nc(-c4ccc(C(=O)NCC#N)cc4)c4cc[nH]c4n3)cc2)CC1 [RF1-024, N-(Cyanomethyl)-4-(2-((4-((4-methylpiperazin-1-yl)methyl)phenyl)amino)-7H-pyrrolo[2,3-d]pyrimidin-4-yl)benzamide] | 3630 | 159 | 9490
5 |  |  | 6.8 °C | 4600 | 870 |  | CN1CCC(c2cnc(Nc3nc(-c4ccc(C(=O)NCC(F)(F)F)cc4)c4cc[nH]c4n3)cc2F)CC1 [RF1-060, 4-(2-((4-Fluoro-5-(1-methylpiperidin-4-yl)pyridin-2-yl)amino)-7H-pyrrolo[2,3-d]pyrimidin-4-yl)-N-(2,2,2-trifluoroethyl)benzamide] | 12000 | 909 | 2930
6 |  | 7.13 |  |  |  | 1.1 | O=C(c1ccc(-c2ccnc(Nc3ccc(N4CCOCC4)cc3)n2)cc1)N1CCC[C@H]1C(F)(F)F [BH1-159, (S)-(4-(2-((4-Morpholinophenyl)amino)pyrimidin-4-yl)phenyl) (2-(trifluoromethyl)pyrrolidin-1-yl) methanone] |  |  | 
7 |  | 8.07 |  |  |  | 1.4 | O=C(c1ccc(-c2ccnc(Nc3ccc(N4CCOCC4)cc3)n2)cc1)N1CCC[C@@H]1C(F)(F)F [BH1-160, (R)-(4-(2-((4-Morpholinophenyl)amino)pyrimidin-4-yl)phenyl) (2-(trifluoromethyl)pyrrolidin-1-yl) methanone] |  |  | 
8 |  | 8.90 | 15.0 °C |  |  | 2.1 | Cc1cnc(Nc2ccc(N3CCOCC3)cc2)nc1Nc1ccc(Cl)c(NS(=O)(=O)C(C)(C)C)c1 [BH1-150] |  |  | 
9 | 5.64 |  |  |  |  | 0.5 | O=C(NC(CO)Cc1ccccc1)c1ccc(-c2ccnc(Nc3ccc(N4CCOCC4)cc3)n2)cc1 (stereo not drawn) [BR1-008] |  |  | 
10 |  | 8.95 | 14.0 °C |  |  | 0.4 | C[C@@H](NC(=O)c1ccc(-c2ccnc(Nc3ccc(N4CCOCC4)cc3)n2)cc1)C(F)(F)F [BH1-151, (R)-4-(2-((4-Morpholinophenyl)amino)pyrimidin-4-yl)-N-(1,1,1-trifluoropropan-2-yl)benzamide] |  |  | 
11 |  | 7.89 |  |  |  | 1.0 | CC(C)(C)[C@@H](CO)NC(=O)c1ccc(-c2ccnc(Nc3ccc(N4CCOCC4)cc3)n2)cc1 [BH1-062, (S)—N-(1-Hydroxy-3,3-dimethylbutan-2-yl)-4-(2-((4-morpholinophenyl)amino)pyrimidin-4-yl)benzamide] |  |  | 
